Data on 2 compounds can be found in article PMC9434233, “Transmembrane helices 5 and 12 control transport dynamics, substrate affinity, and specificity in the elevator-type UapA transporter” (Genetics, 2022).

In general, Km refers to the concentration of substrate that gives half-maximal velocity. Broadly, the Ki is the dissociation constant of the complex between target and ligand, obtained from inhibition or displacement.

For assay [1], the target named is T1, UapA (Aspergillus nidulans, UniProt Q07307).
T1 construct: full-length UapA, C-terminal GFP-type functional tag kept, gpdA promoter, expressed in A. nidulans Δ7 strain lacking 7 major nucleobase transporters; homodimer
Nature of the assay: [3H]-xanthine uptake in germinating conidiospores, initial rates. It counts as cell-based. Particulars: pH 6.8, 37°C; H+ symport; labelled compound; read-out: Km app.

For assay [2], the target named is T1, UapA. Nature of the assay: competition of [3H]-xanthine uptake in germinating conidiospores. It counts as cell-based.

Consider `O=c1[nH]c(=O)c2[nH]cnc2[nH]1` [XA, xanthine], for which the Km at UapA [1] came out at 6 µM.

With `O=c1[nH]c(=O)c2c[nH]nc2[nH]1` [OX, oxypurinol], the Ki at UapA [2] amounted to 103 µM.
